Results from PubChem BioAssay AID248 (DTP/NCI, 2004).
“And” between values parts separate entries of the source, which are not always exact repeats. Identical values can stand only once. Inconclusive results and toxic doses are left out. Cut-off read from the data, not from the text of the source: active = T/C of 150% or more; inactive = T/C below 125%.

Test system: L1210 leukemia ip in BDF1 mice, survival T/C
Experiment: NCI In Vivo Anticancer Drug Screen. Data for tumor model L1210 Leukemia (intraperitoneal) in B6D2F1 (BDF1) mice
Details: endpoint: mean survival time, higher = longer survival
In short: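 Transplantable tumor model; survival measured in treated vs vehicle control mice. Value = treated/control.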

[1] = dose: 100.0 mg/kg/injection, schedule: Q01DX001 (ip), vehicle: saline
[2] = dose: 200.0 mg/kg/injection, schedule: Q01DX001 (ip), vehicle: saline
[3] = dose: 400.0 mg/kg/injection, schedule: Q01DX001 (ip), vehicle: saline
[4] = dose: 50.0 mg/kg/injection, schedule: Q01DX009 (ip), vehicle: saline with Tween-80
[5] = dose: 100.0 mg/kg/injection, schedule: Q04DX003 (ip), vehicle: saline
[6] = dose: 100.0 mg/kg/injection, schedule: Q01DX009 (ip), vehicle: Klucel (hydroxypropylcellulose) (HPC)
[7] = dose: 100.0 mg/kg/injection, schedule: Q01DX009 (ip), vehicle: saline with Tween-80
[8] = dose: 100.0 mg/kg/injection, schedule: Q04DX003 (ip), vehicle: saline with Tween-80
[9] = dose: 200.0 mg/kg/injection, schedule: Q01DX009 (ip), vehicle: saline with Tween-80
[10] = dose: 200.0 mg/kg/injection, schedule: Q04DX003 (ip), vehicle: saline with Tween-80
[11] = dose: 400.0 mg/kg/injection, schedule: Q01DX009 (ip), vehicle: saline with Tween-80
[12] = dose: 400.0 mg/kg/injection, schedule: Q04DX003 (ip), vehicle: saline with Tween-80
[13] = dose: 50.0 mg/kg/injection, schedule: Q01DX001 (ip), vehicle: carboxymethylcellulose (CMC)
[14] = dose: 100.0 mg/kg/injection, schedule: Q01DX001 (ip), vehicle: carboxymethylcellulose (CMC)
[15] = dose: 200.0 mg/kg/injection, schedule: Q01DX001 (ip), vehicle: carboxymethylcellulose (CMC)
[16] = dose: 400.0 mg/kg/injection, schedule: Q01DX001 (ip), vehicle: carboxymethylcellulose (CMC)
[17] = dose: 50.0 mg/kg/injection, schedule: Q01DX001 (ip), vehicle: other
[18] = dose: 100.0 mg/kg/injection, schedule: Q01DX001 (ip), vehicle: other
[19] = dose: 400.0 mg/kg/injection, schedule: Q01DX001 (ip), vehicle: other

Measured: T/C

COc1nc(N)c(C#N)c(C#N)c1C#N
inactive: dose: 15.0 mg/kg/injection, schedule: Q01DX001 (ip), vehicle: carboxymethylcellulose (CMC) 95 % of control | dose: 30.0 mg/kg/injection, schedule: Q01DX001 (ip), vehicle: carboxymethylcellulose (CMC) 95 % of control

Clc1ccccc1-c1nc2ccccc2cc1Br
inactive: [1] 97 % of control | [2] 96 % of control | [3] 92 % of control

Cc1cc(Cl)ccc1NC(=O)OCCOc1ccc([N+](=O)[O-])cc1
inactive: dose: 12.5 mg/kg/injection, schedule: Q01DX009 (ip), vehicle: saline with Tween-80 107 % of control | dose: 25.0 mg/kg/injection, schedule: Q01DX009 (ip), vehicle: saline with Tween-80 91 % of control | [4] 110 % of control

CC(C)(C)C1=CC(=O)C(C#N)=C(C#N)C1=O
inactive: [5] 96 % of control

CCOC(=O)C1(c2cc(NS(=O)(=O)c3ccccc3)ccc2O)CCCCC1=O (centres undefined)
inactive: dose: 50.0 mg/kg/injection, schedule: Q01DX001 (ip), vehicle: saline sonified 97 % of control | dose: 100.0 mg/kg/injection, schedule: Q01DX001 (ip), vehicle: saline sonified 93 % of control | dose: 200.0 mg/kg/injection, schedule: Q01DX001 (ip), vehicle: saline sonified 94 % of control

C/C(=N/N(C)C)c1ccc(F)cc1
inactive: dose: 6.25 mg/kg/injection, schedule: Q01DX009 (ip), vehicle: saline 94 % of control | dose: 12.5 mg/kg/injection, schedule: Q01DX009 (ip), vehicle: saline 98 % of control | dose: 25.0 mg/kg/injection, schedule: Q01DX009 (ip), vehicle: saline 106 % of control | dose: 50.0 mg/kg/injection, schedule: Q01DX009 (ip), vehicle: saline 101 % of control | dose: 100.0 mg/kg/injection, schedule: Q01DX009 (ip), vehicle: saline 94 % of control

Cc1cc(NC(=S)Nc2ccccc2)c(NC(=S)Nc2ccccc2)cc1C
inactive: dose: 12.5 mg/kg/injection, schedule: Q01DX005 (ip), vehicle: Klucel (hydroxypropylcellulose) (HPC) 103 % of control | dose: 25.0 mg/kg/injection, schedule: Q01DX005 (ip), vehicle: Klucel (hydroxypropylcellulose) (HPC) 87 % of control | dose: 25.0 mg/kg/injection, schedule: Q01DX009 (ip), vehicle: Klucel (hydroxypropylcellulose) (HPC) 96 % of control | dose: 50.0 mg/kg/injection, schedule: Q01DX005 (ip), vehicle: Klucel (hydroxypropylcellulose) (HPC) 103 % of control | dose: 50.0 mg/kg/injection, schedule: Q01DX009 (ip), vehicle: Klucel (hydroxypropylcellulose) (HPC) 96 % of control | dose: 100.0 mg/kg/injection, schedule: Q01DX005 (ip), vehicle: Klucel (hydroxypropylcellulose) (HPC) 97 % of control and 101 % of control | [6] 93 % of control | dose: 150.0 mg/kg/injection, schedule: Q01DX009 (ip), vehicle: Klucel (hydroxypropylcellulose) (HPC) 97 % of control | dose: 335.0 mg/kg/injection, schedule: Q01DX009 (ip), vehicle: Klucel (hydroxypropylcellulose) (HPC) 90 % of control | dose: 400.0 mg/kg/injection, schedule: Q01DX005 (ip), vehicle: Klucel (hydroxypropylcellulose) (HPC) 101 % of control

CCC(C)Nc1ccc([N+](=O)[O-])cc1 (centres undefined)
inactive: dose: 75.0 mg/kg/injection, schedule: Q01DX009 (ip), vehicle: other 95 % of control | dose: 150.0 mg/kg/injection, schedule: Q01DX009 (ip), vehicle: other 102 % of control | dose: 300.0 mg/kg/injection, schedule: Q01DX009 (ip), vehicle: other 113 % of control

O=C(Nc1ccc([N+](=O)[O-])cc1Cl)SCCSC(=O)Nc1ccc([N+](=O)[O-])cc1Cl
inactive: [6] 114 % of control | dose: 200.0 mg/kg/injection, schedule: Q01DX009 (ip), vehicle: Klucel (hydroxypropylcellulose) (HPC) 94 % of control | dose: 400.0 mg/kg/injection, schedule: Q01DX009 (ip), vehicle: Klucel (hydroxypropylcellulose) (HPC) 105 % of control

CCCSCCNC(=O)NCCSCCC
inactive: dose: 100.0 mg/kg/injection, schedule: Q04DX002 (ip), vehicle: other 107 % of control | dose: 200.0 mg/kg/injection, schedule: Q04DX002 (ip), vehicle: other 104 % of control | dose: 400.0 mg/kg/injection, schedule: Q04DX002 (ip), vehicle: other 100 % of control

C1COCOC1
inactive: dose: 50.0 mg/kg/injection, schedule: Q01DX009 (ip), vehicle: acetone 109 % of control | dose: 100.0 mg/kg/injection, schedule: Q01DX009 (ip), vehicle: acetone 106 % of control | dose: 200.0 mg/kg/injection, schedule: Q01DX009 (ip), vehicle: acetone 119 % of control

Cc1ccccc1C1c2ccccc2C(=O)c2cccc(C)c21 (centres undefined)
inactive: [7] 101 % of control | [8] 89 % of control | [9] 101 % of control | [10] 102 % of control | [11] 97 % of control | [12] 94 % of control

N=C1SCc2ccccc21
inactive: [6] 104 % of control

COc1cccc(/C=C2\CCNC2=O)c1OC
inactive: [13] 96 % of control | [14] 102 % of control | [15] 100 % of control | [16] 96 % of control

Clc1ccc(N=NNc2ccc(Cl)cc2)cc1
inactive: [7] 91 % of control | [8] 96 % of control | [9] 92 % of control | [10] 105 % of control | [11] 92 % of control | [12] 92 % of control

CC(=O)COc1ccc([N+](=O)[O-])cc1
inactive: dose: 100.0 mg/kg/injection, schedule: Q01DX001 (ip), vehicle: saline with Tween-80 100 % of control | dose: 200.0 mg/kg/injection, schedule: Q01DX001 (ip), vehicle: saline with Tween-80 102 % of control | dose: 400.0 mg/kg/injection, schedule: Q01DX001 (ip), vehicle: saline with Tween-80 98 % of control

Cc1c(Cl)cccc1NC(=O)N(C)Cc1ccccc1
inactive: [4] 109 % of control and 120 % of control | dose: 100.0 mg/kg/injection, schedule: Q04DX002 (ip), vehicle: saline with Tween-80 104 % of control and 110 % of control | [8] 97 % of control | dose: 200.0 mg/kg/injection, schedule: Q04DX002 (ip), vehicle: saline with Tween-80 100 % of control and 104 % of control | [10] 106 % of control | dose: 400.0 mg/kg/injection, schedule: Q04DX002 (ip), vehicle: saline with Tween-80 100 % of control and 103 % of control | [12] 101 % of control

Cn1c(=O)c2c(nc(Cc3ccc(NC(=O)c4ccc(C(=O)Nc5ccc(Cc6nc7c(c(=O)n(C)c(=O)n7C)n6C)cc5)cc4)cc3)n2C)n(C)c1=O
inactive: [17] 97 % of control | [18] 94 % of control | dose: 200.0 mg/kg/injection, schedule: Q01DX001 (ip), vehicle: other 94 % of control | [19] 92 % of control

O=S(=O)(Cc1ccccc1)C(Cl)Cl
inactive: dose: 75.0 mg/kg/injection, schedule: Q01DX001 (ip), vehicle: saline 96 % of control | dose: 150.0 mg/kg/injection, schedule: Q01DX001 (ip), vehicle: saline 94 % of control | dose: 300.0 mg/kg/injection, schedule: Q01DX001 (ip), vehicle: saline 96 % of control

CC(=O)N(C)c1cccc(C(=O)O)c1
inactive: [8] 98 % of control | [10] 94 % of control | [12] 98 % of control

Cc1nc2c(c(=O)[nH]1)OCN(Cc1ccccc1)C2
inactive: [13] 96 % of control | [14] 98 % of control | [15] 98 % of control | [16] 98 % of control

O=C(CCCNC(=O)OCc1ccccc1)NCCCCCCNCCCCCCNC(=O)CCCNC(=O)OCc1ccccc1
inactive: dose: 50.0 mg/kg/injection, schedule: Q01DX001 (ip), vehicle: saline 95 % of control | [1] 95 % of control | [2] 98 % of control | [3] 98 % of control

COc1ccccc1SC(=O)N(C)C
inactive: [7] 102 % of control | [8] 105 % of control | [9] 98 % of control | [10] 96 % of control | [11] 93 % of control | [12] 113 % of control

COc1cc(C(=O)NCCBr)cc(OC)c1OC
inactive: [5] 107 % of control | dose: 200.0 mg/kg/injection, schedule: Q04DX003 (ip), vehicle: saline 108 % of control | dose: 400.0 mg/kg/injection, schedule: Q04DX003 (ip), vehicle: saline 103 % of control

Cn1c(=O)c2[nH]c(C3CC=CCC3)nc2n(C)c1=O (centres undefined)
inactive: [17] 97 % of control | [18] 95 % of control | [19] 94 % of control

O=c1cc(O)cc(Cl)[nH]1
inactive: [1] 96 % of control | [2] 91 % of control | [3] 96 % of control
